Cc1ccc2cc(Br)ccc2n1
solubility (mole fraction)
Settings | in DMF | in acetone | in acetonitrile | in ethanol | in ethyl acetate | in isopropanol | in methanol | in n-propanol | in toluene | in water
278.15 K | 0.00585 | 0.00678 | 0.00648 | 0.000938 | 0.0072 | 0.00191 | 0.000232 | 0.00218 | 0.00817 | 6.88e-06
283.15 K | 0.00675 | 0.00793 | 0.00743 | 0.00112 | 0.00844 | 0.00229 | 0.000276 | 0.00261 | 0.00953 | 8.1e-06
288.15 K | 0.00765 | 0.00926 | 0.00855 | 0.00131 | 0.0101 | 0.00274 | 0.000319 | 0.00317 | 0.0111 | 9.62e-06
293.15 K | 0.00869 | 0.0108 | 0.00974 | 0.00151 | 0.0117 | 0.0032 | 0.000372 | 0.00371 | 0.0132 | 1.13e-05
298.15 K | 0.00994 | 0.0126 | 0.0112 | 0.00179 | 0.0136 | 0.00375 | 0.000444 | 0.00438 | 0.0155 | 1.33e-05
303.15 K | 0.0116 | 0.0149 | 0.0131 | 0.00213 | 0.0159 | 0.00442 | 0.000525 | 0.00513 | 0.018 | 1.54e-05
308.15 K | 0.0137 | 0.0175 | 0.0154 | 0.00249 | 0.0187 | 0.00518 | 0.000613 | 0.00593 | 0.0212 | 1.82e-05
313.15 K | 0.0161 | 0.0204 | 0.0182 | 0.00289 | 0.0218 | 0.00608 | 0.000719 | 0.00687 | 0.0248 | 2.13e-05
318.15 K | 0.0188 | 0.0237 | 0.0213 | 0.00334 | 0.0255 | 0.00703 | 0.000849 | 0.0079 | 0.0286 | 2.48e-05
323.15 K | 0.0222 | 0.0276 | 0.0253 | 0.0039 | 0.0299 | 0.00812 | 0.000998 | 0.00914 | 0.0332 | 2.89e-05

Reference: BigSolDB 2.1
